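Five compound concentrations were applied to cells in 96-well plates for 48 hours; endpoints were derived by simple linear interpolation of the resulting dose-response curve. Here, GI50 denotes the concentration required for 50% inhibition of growth. TGI marks complete inhibition of growth.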
Key:
Assay in all cases: NCI-60 cell line screen, 48 h
[1] = tested on: 786-0 renal
[2] = tested on: A498 renal
[3] = tested on: A549 NSCLC
[4] = tested on: ACHN renal
[5] = tested on: BT-549 breast
[6] = tested on: CAKI-1 renal
[7] = tested on: CCRF-CEM leukemia
[8] = tested on: COLO 205 colon
[9] = tested on: DU-145 prostate
[10] = tested on: EKVX NSCLC
[11] = tested on: HCC-2998 colon
[12] = tested on: HCT-116 colon
[13] = tested on: HCT-15 colon
[14] = tested on: HL-60(TB) leukemia
[15] = tested on: HOP-62 NSCLC
[16] = tested on: HOP-92 NSCLC
[17] = tested on: HS 578T breast
[18] = tested on: HT29 colon
[19] = tested on: IGROV1 ovarian
[20] = tested on: K-562 leukemia
[21] = tested on: KM12 colon
[22] = tested on: LOX IMVI melanoma
[23] = tested on: M14 melanoma
[24] = tested on: MALME-3M melanoma
[25] = tested on: MCF7 breast
[26] = tested on: MDA-MB-231 breast
[27] = tested on: MDA-MB-435
[28] = tested on: MOLT-4 leukemia
[29] = tested on: NCI-H226 lung
[30] = tested on: NCI-H23 lung
[31] = tested on: NCI-H460 lung
[32] = tested on: NCI-H522 lung
[33] = tested on: NCI/ADR-RES ovarian
[34] = tested on: OVCAR-3 ovarian
[35] = tested on: OVCAR-4 ovarian
[36] = tested on: OVCAR-5 ovarian
[37] = tested on: OVCAR-8 ovarian
[38] = tested on: PC-3 prostate
[39] = tested on: RPMI-8226 leukemia
[40] = tested on: RXF 393 renal
[41] = tested on: SF-268 CNS
[42] = tested on: SF-295 CNS
[43] = tested on: SF-539 CNS
[44] = tested on: SK-MEL-2 melanoma
[45] = tested on: SK-MEL-28 melanoma
[46] = tested on: SK-MEL-5 melanoma
[47] = tested on: SK-OV-3 ovarian
[48] = tested on: SN12C renal
[49] = tested on: SNB-19 CNS
[50] = tested on: SNB-75 CNS
[51] = tested on: SR leukemia
[52] = tested on: SW-620 colon
[53] = tested on: T-47D breast
[54] = tested on: TK-10 renal
[55] = tested on: U251 CNS
[56] = tested on: UACC-257 melanoma
[57] = tested on: UACC-62 melanoma
[58] = tested on: UO-31 renal

## Cc1cc(Nc2cc(N3CCN(C)CC3)nc(/C=C/c3ccccc3)n2)n[nH]1
[1]
  GI50: 0.789 µM
  TGI: > 6.25 µM
[2]
  GI50: 0.389 µM
  TGI: 1.66 µM
[3]
  GI50: 0.501 µM
  TGI: > 10 µM
[4]
  GI50: 0.205 µM
  TGI: 3.92 µM
[5]
  GI50: 1.12 µM
  TGI: > 8.73 µM
[6]
  GI50: 0.223 µM
  TGI: > 5.38 µM
[7]
  GI50: 0.412 µM
  TGI: > 10 µM
[8]
  GI50: 0.44 µM
  TGI: > 2.03 µM
[9]
  GI50: 1.04 µM
  TGI: > 10 µM
[10]
  GI50: 1.21 µM
  TGI: > 7.24 µM
[11]
  GI50: 0.839 µM
  TGI: 4.42 µM
[12]
  GI50: 0.201 µM
  TGI: > 10 µM
[13]
  GI50: 0.326 µM
  TGI: > 10 µM
[14]
  GI50: 0.32 µM
  TGI: 2.57 µM
[15]
  GI50: 0.768 µM
  TGI: > 3.98 µM
[16]
  GI50: 0.476 µM
  TGI: 1.95 µM
[17]
  GI50: 0.517 µM
  TGI: 1.86 µM
[18]
  GI50: 0.542 µM
  TGI: > 6.77 µM
[19]
  GI50: 0.0542 µM
  TGI: 1.62 µM
[20]
  GI50: 0.644 µM
  TGI: > 10 µM
[21]
  GI50: 0.0426 µM
  TGI: > 3.84 µM
[22]
  GI50: 0.334 µM
  TGI: 1.51 µM
[23]
  GI50: 0.343 µM
  TGI: > 3.81 µM
[24]
  GI50: 0.796 µM
  TGI: > 4.77 µM
[25]
  GI50: 0.235 µM
  TGI: > 7.88 µM
[26]
  GI50: 0.966 µM
  TGI: 9.95 µM
[27]
  GI50: 0.406 µM
  TGI: > 5.28 µM
[28]
  GI50: 0.186 µM
  TGI: > 10 µM
[29]
  GI50: 1.29 µM
  TGI: > 9.46 µM
[30]
  GI50: 1.14 µM
  TGI: > 5.23 µM
[31]
  GI50: 0.29 µM
  TGI: > 5.52 µM
[32]
  GI50: 0.336 µM
  TGI: > 2.19 µM
[33]
  GI50: 2.03 µM
  TGI: > 10 µM
[34]
  GI50: 1.2 µM
  TGI: > 10 µM
[35]
  GI50: 0.644 µM
  TGI: > 10 µM
[36]
  GI50: 0.866 µM
  TGI: > 9.04 µM
[37]
  GI50: 1.68 µM
  TGI: > 10 µM
[38]
  GI50: 0.794 µM
  TGI: > 6.61 µM
[39]
  GI50: 1.69 µM
  TGI: > 3.14 µM
[40]
  GI50: 0.246 µM
  TGI: 1.04 µM
[41]
  GI50: 0.845 µM
  TGI: > 4.08 µM
[42]
  GI50: 0.707 µM
  TGI: > 4.64 µM
[43]
  GI50: 0.718 µM
  TGI: 2.05 µM
[44]
  GI50: 0.702 µM
  TGI: > 2.39 µM
[45]
  GI50: 1.41 µM
  TGI: > 5.48 µM
[46]
  GI50: > 2.11 µM
  TGI: > 4.15 µM
[47]
  GI50: 1.35 µM
  TGI: > 10 µM
[48]
  GI50: 0.62 µM
  TGI: > 10 µM
[49]
  GI50: 1.49 µM
  TGI: > 10 µM
[50]
  GI50: 0.391 µM
  TGI: 2.12 µM
[51]
  GI50: 0.103 µM
  TGI: 2.19 µM
[52]
  GI50: 0.294 µM
  TGI: > 10 µM
[53]
  GI50: 1.77 µM
  TGI: > 9.46 µM
[54]
  GI50: 0.797 µM
  TGI: > 5.11 µM
[55]
  GI50: 0.883 µM
  TGI: > 6.76 µM
[56]
  GI50: 1.98 µM
  TGI: > 5.32 µM
[57]
  GI50: 1.07 µM
  TGI: > 3.51 µM
[58]
  GI50: 0.263 µM
  TGI: 2.7 µM

## O=C(NCC1CCCO1)c1ccc(NC2=C(Cl)C(=O)N(Cc3ccccc3)C2=O)cc1 (centres undefined)
[1]
  GI50: 15.2 µM
  TGI: 28.6 µM
[2]
  GI50: 22.2 µM
  TGI: 41.9 µM
[3]
  GI50: 19.1 µM
  TGI: 50.5 µM
[4]
  GI50: 18.7 µM
  TGI: 38.8 µM
[5]
  GI50: 16.7 µM
  TGI: 33.9 µM
[6]
  GI50: 1.79 µM
  TGI: 3.34 µM
[8]
  GI50: 23 µM
  TGI: 71.9 µM
[9]
  GI50: 12.3 µM
  TGI: 30 µM
[10]
  GI50: 20.4 µM
  TGI: 37 µM
[11]
  GI50: 13.1 µM
  TGI: 27.1 µM
[12]
  GI50: 13.3 µM
  TGI: 26.2 µM
[13]
  GI50: 19 µM
  TGI: 62.3 µM
[14]
  GI50: 9.25 µM
  TGI: 25 µM
[16]
  GI50: 6.4 µM
  TGI: 21.5 µM
[17]
  GI50: 22.1 µM
  TGI: 65.3 µM
[18]
  GI50: 22.2 µM
  TGI: 88 µM
[19]
  GI50: 2.93 µM
  TGI: 7.52 µM
[20]
  GI50: 11.1 µM
  TGI: 34.3 µM
[21]
  GI50: 17.1 µM
  TGI: 35 µM
[22]
  GI50: 24.5 µM
  TGI: > 100 µM
[23]
  GI50: 11.2 µM
  TGI: 23.4 µM
[25]
  GI50: 4.39 µM
  TGI: 26.6 µM
[26]
  GI50: 16.8 µM
  TGI: 46.6 µM
[27]
  GI50: 9.33 µM
  TGI: 21.7 µM
[28]
  GI50: 4.49 µM
  TGI: > 100 µM
[29]
  GI50: 11.8 µM
  TGI: 26.7 µM
[30]
  GI50: 17.2 µM
  TGI: 34.3 µM
[31]
  GI50: 15.5 µM
  TGI: 46.5 µM
[32]
  GI50: 1.92 µM
  TGI: 10.8 µM
[33]
  GI50: 23.9 µM
  TGI: 51.4 µM
[34]
  GI50: 3.18 µM
  TGI: 10.7 µM
[35]
  GI50: 19.2 µM
  TGI: 44.6 µM
[36]
  GI50: 16.6 µM
  TGI: 32.8 µM
[37]
  GI50: 16.7 µM
  TGI: 54.6 µM
[38]
  GI50: 11.4 µM
  TGI: 25 µM
[39]
  GI50: 3.36 µM
  TGI: 12.7 µM
[40]
  GI50: 20.6 µM
  TGI: 50.8 µM
[41]
  GI50: 13.2 µM
  TGI: 45.4 µM
[42]
  GI50: 12.1 µM
  TGI: 25 µM
[43]
  GI50: 15.4 µM
  TGI: 31.2 µM
[44]
  GI50: 17.5 µM
  TGI: 34.7 µM
[45]
  GI50: 18.6 µM
  TGI: 41.1 µM
[46]
  GI50: 14.6 µM
  TGI: 33.3 µM
[47]
  GI50: 18.6 µM
  TGI: 36.6 µM
[48]
  GI50: 0.0654 µM
  TGI: 7.32 µM
[49]
  GI50: 21.5 µM
  TGI: 45.1 µM
[50]
  GI50: 20 µM
  TGI: 39.3 µM
[51]
  GI50: 12.4 µM
  TGI: 30.9 µM
[52]
  GI50: 5.95 µM
  TGI: 42.8 µM
[53]
  GI50: 30.5 µM
  TGI: > 100 µM
[55]
  GI50: 18.6 µM
  TGI: 40.7 µM
[56]
  GI50: 17 µM
  TGI: 45.6 µM
[57]
  GI50: 10.8 µM
  TGI: 24.3 µM
[58]
  GI50: 2.67 µM
  TGI: 8.24 µM
